Earlier results on 1 molecule are cited in patent publication US11491138B2, “Injectable psychoactive alkaloid composition and preparation thereof” (PSILO SCIENTIFIC LTD, priority 2020, dated 2022).

Structures are written as SMILES.

For series [1] the following is noted: stated as known property.
For series [2] the following is noted: reason for composition pH of 4.5-5.5.

Take `CN(C)CCc1c[nH]c2cccc(O)c12` [psilocin]: the isoelectric point in series [1] is given as 8.47±0.25 pH. Further, the “pH at which instability occurs” value in series [2] was “over 5.5 pH”.
